Experimental findings from the METLIN SMRT retention time set (Domingo-Almenara et al. 2019) are described below.

The data set in a line: gradient 5% acetonitrile 3 min, to 50% in 2 min, to 85% in 15 min, held 3 min, 100 µL/min. The settings on record: column: Zorbax Extend-C18 2.1 x 50 mm; eluents: water / acetonitrile, 0.1% formic acid. The gist of the method:
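A Zorbax Extend-C18 column (2.1 × 50 mm, 1.8 μm) run at 100 μL/min with water and acetonitrile, both containing 0.1% formic acid, separated mixtures of ~100 pure standards. The HPLC was coupled to a quadrupole time-of-flight mass spectrometer operated in positive and negative ionization mode, with dead and dwell volumes of 40 μL and 900 μL. Each retention time was taken from a computationally picked adduct peak that was then manually inspected.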
As to `O=C(NCCn1c(-c2ccc(F)cc2)nc2cccnc21)NCc1ccccc1`, the RP-LC retention time is 684 s. On to `CS(=O)(=O)c1nc2ccc(NS(=O)(=O)c3ccc(Br)s3)cc2s1`, for which the RP-LC retention time worked out at 888 s. The value for `COCCCNC(=O)C1CCCN(S(=O)(=O)c2cc(OC)ccc2OC)C1` (stereo not drawn) was 699 s. `Cc1ccc(Cn2cc(-c3ccncc3)cc2C(=O)NCCN(C)C)cc1` yielded an RP-LC retention time of 570 s. The molecule `Cc1ccc(-c2noc(-c3ccc(N4CCN(c5cc(C)ccc5C)CC4)nc3)n2)cc1` came in with an RP-LC retention time of 749 s. As to `O=C(O)CSc1nc2ccccc2s1`, the RP-LC retention time was 795 s. The figure for `O=c1c(NCCc2ccc(Cl)cc2)nc2ccncc2n1Cc1ccccc1` is 766 s; for `Cc1ccc(-c2cn3ccn(-c4ccc(F)cc4)c(=O)c3n2)cc1C` it is 901 s. Regarding `CN(C)CCOc1ccc2c(c1)C(=O)/C(=C\c1ncc([N+](=O)[O-])n1C)C2`, the RP-LC retention time was 695 s. The value for `COc1cc(Nc2c(C(=O)N3CCC(C)CC3)cnc3nc(C)ccc23)cc(OC)c1` was 662 s; that for `CCOc1ccc(NC(=O)C2CCN(S(=O)(=O)c3cn(CC)cn3)CC2)cc1` was 784 s; that for `CN(CCOc1ccc(CC2SC(=O)NC2=O)cc1)c1ccccn1` (stereo not drawn) was 628 s. The figure for `CCOC(=O)c1ccc2nc(C(F)(F)F)nc(NCCCN3CCCC3=O)c2c1` is 876 s; for `CCCn1ncc(N2CCC(C(=O)N3CCN(C(C)C)CC3)CC2)cc1=O` it is 566 s. The figure for `Cc1ccc(CNC(=O)C2(C)CN(S(C)(=O)=O)CC(=O)N2c2cccc(Cl)c2C)cc1` (stereo not drawn) is 893 s; for `CN(C)C(=O)c1cc2cccc3c2n1CCS3` it is 816 s; for `COC(=O)c1ccc(NC(=O)Cc2csc3nc(-c4ccc(C)c(C)c4)cn23)cc1` it is 849 s. In turn, `Cc1ccc(N2C(=O)CN(CCc3cccs3)[C@H]3CS(=O)(=O)C[C@H]32)cc1C` returned an RP-LC retention time of 865 s. Regarding `O=C(CSc1cc(NCc2ccccc2Cl)ncn1)NC1CCCC1`, the RP-LC retention time was 794 s.

`CC1CCN(Cc2csc(N3CCN(C(=O)c4ccc(C#N)cc4)CC3)n2)CC1`: the RP-LC retention time was determined as 638 s. The value for `CCCNC(=O)C1CCCN(c2ccc(SCC(=O)Nc3cccc(Cl)c3C)nn2)C1` (stereo not drawn) was 720 s; that for `O=C(NCc1cccc(F)c1)C1CCN(c2cnc(N3CCSCC3)nc2)CC1` was 793 s; that for `Cc1nn(Cc2nc(-c3ccc(NC(=O)C4CCCC4)cc3)oc2C)c(C)c1C` was 860 s. The figure for `CCOc1ccc(-c2nc(NC(=O)c3ccccc3[N+](=O)[O-])sc2C)cc1` is 1050 s; for `CCN1C(=O)c2cccnc2Sc2cc(CNC(=O)c3ccc(OC)cc3)ccc21` it is 755 s; for `Cc1ccc(-c2noc(C3CCCN3S(=O)(=O)c3ccc(Cl)cc3C)n2)cc1` (stereo not drawn) it is 1320 s. The molecule `COc1cccc(CCN2CC(=O)N(c3cccc(C)c3)[C@@H]3CS(=O)(=O)C[C@@H]32)c1` registered an RP-LC retention time of 849 s. The value for `Cc1nc(CC(=O)Nc2nc(-c3ccccc3)c(C)s2)cs1` was 894 s; that for `CN(C)S(=O)(=O)c1ccc2c(c1)N(CC(=O)NCCC1=CCCCC1)C(=O)C1CCCCN21` (stereo not drawn) was 996 s. `Cc1nc2ccccc2c(=O)n1Cc1noc(C2CC(=O)N(c3ccccc3)C2)n1` (stereo not drawn) yielded an RP-LC retention time of 722 s. The molecule `CCc1cc2c(cc1N1CCC(N3CCOCC3)CC1)C(C)(C)c1[nH]c3cc(C#N)ccc3c1C2=O` gave an RP-LC retention time of 740 s. For the molecule `CC(C)(C)c1ccc(S(=O)(=O)N2CCCCC2C(=O)N2CCN(c3ccccc3F)CC2)cc1` (stereo not drawn), the RP-LC retention time is 1280 s. The value for `Cc1[nH]c(C(=O)Nc2ccccc2)c(C)c1S(=O)(=O)N1CCCCC1` was 925 s. The value for `Cc1cc2c(cc1S(=O)(=O)N1CCCC1C(=O)Nc1ccc(F)cc1)OC(C)C(=O)N2` (stereo not drawn) was 775 s; that for `COc1ccc(CNC(=O)c2cn(-c3cc(N(C)C)ncn3)cn2)cc1` was 743 s. The value for `COCc1noc(C2CCCCN2C(=O)Cc2c(C)noc2C)n1` (stereo not drawn) was 673 s; that for `CCCCN(CCCNC(=O)c1cc(C)nn1-c1ccccc1)Cc1ccccc1` was 656 s; that for `Cn1c(C2CCN(C(=O)Nc3cccc(Cl)c3F)CC2)cc(=O)n2nccc12` was 685 s. In the case of `O=C(NCC1CCN(S(=O)(=O)C2CC2)CC1)c1cc(=O)c2ccccc2o1`, the RP-LC retention time was determined as 674 s. In turn, `CN(C)c1ccc(C(=O)N2CCCC(COc3ccc(C(=O)NC4CC4)cc3)C2)cc1` (stereo not drawn) registered an RP-LC retention time of 780 s. On to `O=C1NCCCCCN(C(=O)c2ccco2)[C@@H]2C[C@@H](C(=O)N3CCc4ccccc4C3)C[C@H]12`, for which the RP-LC retention time was found to be 752 s. Molecule `CCc1c(C2CCN(C(=O)c3ccnn3C)CC2)noc1N` had an RP-LC retention time of 596 s. Turning to `CC1=C(c2ccc(C)c(C)c2)S(=O)(=O)N=C1N1CCCN(C(=O)CC2CCCC2)CC1`, the RP-LC retention time turned out to be 967 s.

`Cc1cc(F)ccc1NC(=O)C1CN(S(=O)(=O)C2CC2)CC12CCCCC2` (stereo not drawn) gave an RP-LC retention time of 964 s.

`CCOC(=O)C1=C(CN2CCN(c3ccccn3)CC2)NC(=O)NC1c1ccccc1` (stereo not drawn) returned an RP-LC retention time of 596 s.

Consider `CCCCC(=O)Nc1ccc2nc(N3CCN(c4ccccc4)CC3)cc(C(=O)O)c2c1`, for which the RP-LC retention time was found to be 672 s. The figure for `Cc1cccc(C)c1Nc1c(-c2ccc(F)cc2)nc2cnccn12` is 901 s; for `Cc1ccccc1CNC(=O)c1cn(-c2ccc(-c3nc(C(C)(C)C)no3)cn2)cn1` it is 1100 s.

Consider `CCOC(=O)c1nc(N2CCN(c3ccccc3OC)CC2)c2ccccc2n1`, for which the RP-LC retention time amounted to 809 s. Molecule `C[C@@H](NC(=O)c1cc(C(=O)N[C@@H](Cc2ccccc2)[C@H](O)CNC2CC2)cc(N(C)S(C)(=O)=O)c1)c1ccccc1` came in with an RP-LC retention time of 705 s. On to `O=C(C1CCCN(c2nn3c(=O)c4c(nc3s2)CCCC4)C1)N1CCN(c2ccccn2)CC1` (stereo not drawn), for which the RP-LC retention time turned out to be 588 s. The figure for `Cn1nc2n(c1=O)CCN(C(=O)C1(c3ccccc3)CCCC1)CC2` is 736 s; for `Cc1cccc(CNC(=O)C2(c3ccc(NS(C)(=O)=O)cc3)CCCCC2)c1` it is 921 s.

In the case of `O=C(c1ccc(Cl)cc1)N1CCc2nc(-c3ccc(Cl)cc3)ncc2C1`, the RP-LC retention time was found to be 1140 s. The figure for `Clc1cccc(CSc2ncnc3nc[nH]c23)c1` is 765 s; for `O=C(Nc1ccc2c(c1)OCO2)c1cccc2c1CCN2C(=O)Nc1ccc(F)cc1` it is 929 s. The figure for `O=C(CN1C(=O)CC(c2ccccc2)=Nc2cccnc21)Nc1ccc(F)cc1F` is 949 s.

Consider `CCn1cc(CCN2CCN(S(=O)(=O)c3ccc4c(c3)CCC4)CC2)c2cccnc21`, for which the RP-LC retention time was determined as 702 s. The figure for `CCc1cc(=O)n(CC(=O)Nc2ccccc2CC)c(N2CCOCC2)n1` is 784 s; for `CC(C)Cc1cc(-c2nn3c(Cc4ccccc4)nnc3s2)n[nH]1` it is 910 s; for `Cc1cc(C(=O)N2CCC3(CC2)CC(C)(O)CCO3)c(C)o1` (stereo not drawn) it is 677 s. The value for `COc1ccc(C2(CNC(=O)C(=O)Nc3ccccc3Cl)CCCC2)cc1` was 1300 s. The figure for `CC(C)n1cnc2cc(CNC(=O)c3ccccc3Cl)ccc21` is 597 s; for `COC(=O)c1ccc2c(=O)n(-c3cc(C)cc(C)c3)c(N3CCC(C)CC3)nc2c1` it is 1420 s. In the case of `O=C(Cc1scnc1-c1cccs1)N1CCN(c2ccccn2)CC1`, the RP-LC retention time was found to be 596 s. The value for `COC(=O)c1ccc2nc(NC(=O)c3ccccc3S(C)(=O)=O)sc2c1` was 744 s; that for `CCOC(=O)C1CCN(c2nc(-c3ccc(OC)cc3)no2)CC1` was 981 s. The value for `O=C(NCc1ccco1)c1ccc(Cn2nc(N3CCN(c4ccccc4)CC3)ccc2=O)o1` was 780 s; that for `Cc1cccn2cc(-c3cccc(NS(=O)(=O)c4ccc(Cl)cc4)c3)nc12` was 686 s; that for `Cc1cc(C)n2nc(SCC(=O)Nc3ccccc3C(F)(F)F)nc2n1` was 753 s. The figure for `O=C(c1ccc(Cl)cc1)N1CCCC(c2nnc(-c3ccccc3)o2)C1` (stereo not drawn) is 874 s; for `O=C(COc1ccccc1)Nc1cnc(N2CCCCCC2)nc1` it is 941 s; for `COc1cccc(-c2noc(CN3C(=O)COc4cc(Cl)ccc43)n2)c1OC` it is 1020 s. For the molecule `CC(C)(C)C(=O)Nc1ccc2nc(N3CCN(c4ccccc4Cl)CC3)cc(C(=O)O)c2c1`, the RP-LC retention time turned out to be 750 s. The figure for `CSc1ncc2[nH]c(C(O)c3ccccc3)nc2n1` (stereo not drawn) is 692 s; for `CCn1ccc2cc(S(=O)(=O)N3CCC(C(=O)N4CCN(c5ccccn5)CC4)CC3)ccc21` it is 674 s. In turn, `CN(C)c1cccc(C(=O)Nc2cc(-c3ccccn3)no2)c1` displayed an RP-LC retention time of 776 s.

For the molecule `O=C(CCC1CCCC1)N1CCN(C(=O)c2cc(-c3cccnc3)n[nH]2)CC1`, the RP-LC retention time was determined as 652 s.
